Target: T1, TLR9 (Homo sapiens, UniProt Q9NR96)
T1 sequence (Q9NR96 26-1032): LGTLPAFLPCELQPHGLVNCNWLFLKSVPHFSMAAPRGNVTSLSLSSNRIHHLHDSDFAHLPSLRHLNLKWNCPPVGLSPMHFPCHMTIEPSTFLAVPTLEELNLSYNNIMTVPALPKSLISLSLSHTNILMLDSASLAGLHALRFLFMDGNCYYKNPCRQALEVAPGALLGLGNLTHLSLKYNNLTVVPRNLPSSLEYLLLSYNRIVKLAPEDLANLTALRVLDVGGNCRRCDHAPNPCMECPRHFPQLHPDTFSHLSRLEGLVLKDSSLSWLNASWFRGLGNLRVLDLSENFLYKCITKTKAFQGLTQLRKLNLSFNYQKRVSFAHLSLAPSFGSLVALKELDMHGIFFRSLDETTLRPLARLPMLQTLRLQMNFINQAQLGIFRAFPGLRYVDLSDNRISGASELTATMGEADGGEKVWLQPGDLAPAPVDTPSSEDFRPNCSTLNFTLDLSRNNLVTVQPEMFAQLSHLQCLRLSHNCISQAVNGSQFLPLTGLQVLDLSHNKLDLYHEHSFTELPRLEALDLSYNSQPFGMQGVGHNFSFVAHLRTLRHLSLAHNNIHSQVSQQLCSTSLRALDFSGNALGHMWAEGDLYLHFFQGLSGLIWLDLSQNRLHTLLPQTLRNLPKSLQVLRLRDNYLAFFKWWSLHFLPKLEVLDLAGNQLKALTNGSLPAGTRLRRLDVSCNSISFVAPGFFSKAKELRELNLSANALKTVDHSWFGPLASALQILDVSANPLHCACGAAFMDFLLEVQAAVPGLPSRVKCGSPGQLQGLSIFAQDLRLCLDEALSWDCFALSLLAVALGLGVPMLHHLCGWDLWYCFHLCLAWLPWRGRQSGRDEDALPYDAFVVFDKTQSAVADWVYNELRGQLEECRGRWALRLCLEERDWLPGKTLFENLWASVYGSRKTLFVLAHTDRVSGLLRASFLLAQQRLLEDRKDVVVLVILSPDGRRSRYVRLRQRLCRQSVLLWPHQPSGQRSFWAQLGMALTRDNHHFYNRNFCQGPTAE
Test: HEK-Blue hTLR9 SEAP reporter assay
Type: cell-based
Design: expressed in transfected cells; host or cells: HEK-Blue (HEK 293) hTLR9 reporter cells
Conditions: 2.5 μM ODN 2006, GBZ 50 μM
Procedure: FIG. 1: Guanabenz inhibits TLR3 and TLR9 activation in mouse Flt3-L DCs and human blood pDCs. A) Sorted bone marrow derived Flt3L-DCs were activated for 6 h with 10 μg/mL poly I:C LMW (TLR3 in DC1) or 1 μM ODN 1585 (TLR9 in pDCs). GBZ was added at 50 μM and inhibited IFN-β and Interleukin-6 (IL-6) production in activated cells. B) hTLR4, hTLR3, hTLR9 and hTLR7 expressed in the reporter HEK-Blue™ cells are inhibited by GBZ. TLR-expressing HEK-Blue™ cells were respectively activated with 100 ng/mL LPS, 10 μg/mL poly I:C LMW, 2.5 μM ODN 2006 or 5 μg/mL imiquimod, respectively. GBZ was added at 50 μM. TLR activity was measured indirectly through SEAP activity as absorbance at 405 nm. […] Protein concentration of IFN-α and TNF-α secreted were measured at the indicated time points or at 16 h. […]
Given the efficiency of GBZ on mouse TLR3 and TLR9, we turned to human TLRs, in order to extend the relevance of our observations. GBZ-mediated inhibition was first evaluated on NF-kB signaling by monitoring secreted alkaline phosphatase (SEAP) reporter levels in HEK-293 cells expressing TLR3, TLR4, TLR7, TLR9 (FIG. 1B). […] The functionality of the TLR9 transduction pathway was next evaluated by using phospho-flow detection of 40S ribosomal protein S6 (rpS6) phosphorylation, a well characterized early signaling event down-stream of TLR activation by LPS or viruses.

SMILES: NC(N)=N/N=C/c1c(Cl)cccc1Cl [GBZ, 2-(2,6-dichlorobenzylidene)-hydrazinecarboximidamide]
- TLR9-dependent activation of the SEAP reporter: inhibited
